pIC50: −log10 of the molar value.
What was measured:
Mus musculus [1] = assay: In vivo tumor cell growth inhibitory activity of H-81 tumor xenograft of stomach in nude mice at a concentration of 15 mg/kg for 15 days; format: functional
Mus musculus [2] = assay: In vivo tumor cell growth inhibitory activity against AZ-521 tumor xenograft of stomach in nude mice at a concentration of 15 mg/kg for 15 days; format: functional
Mus musculus [3] = assay: In vivo tumor cell growth inhibitory activity against DLD-1 tumor xenograft of […] in nude mice at a concentration of 15 mg/kg for 15 days; format: functional
Mus musculus [4] = assay: In vivo tumor cell growth inhibitory activity against H-31 cells tumor xenograft of breast in nude mice at a concentration of 15 mg/kg for 15 days; format: functional
Mus musculus [5] = assay: In vivo tumor cell growth inhibitory activity against Hucc-T1 cells tumor xenograft of bile duct in nude mice at a concentration of 15 mg/kg for 15 days; format: functional
Mus musculus [6] = assay: In vivo inhibitory activity against BxPC-3 tumor xenograft of pancreas in nude mice at a concentration of 15 mg/kg for 15 days; format: functional
Mus musculus [7] = assay: In vivo tumor cell growth inhibitory activity against JRC-11 cells tumor xenograft of renal in nude mice at a concentration of 15 mg/kg for 15 days; format: functional
Mus musculus [8] = assay: In vivo tumor cell growth inhibitory activity against KM12C tumor xenograft of […] in nude mice at a concentration of 15 mg/kg for 15 days; format: functional
Mus musculus [9] = assay: In vivo inhibitory activity against PAN-12 tumor xenograft of pancreas in nude mice at a concentration of 15 mg/kg for 15 days; format: functional
Mus musculus [10] = assay: In vivo tumor cell growth inhibitory activity of CO-3 tumor xenograft of […] in nude mice at a concentration of 15 mg/kg for 15 days; format: functional
A-375 = assay: In vitro tumor cell growth inhibitory activity against Human melanoma cell lines A375; format: functional, cell-based
A-431 = assay: In vitro tumor cell growth inhibitory activity against Human […] A431 cell lines; format: functional, cell-based
COLO 320DM = assay: In vitro tumor cell growth inhibitory activity against i Human colon (adenocarcinoma) cell lines. COLO 320DM; format: functional, cell-based
HCT-15 = assay: In vitro tumor cell growth inhibitory activity against HCT-15; format: functional, cell-based; settings: Homo sapiens
HOS = assay: In vitro tumor cell growth inhibitory activity against Human osteosarcoma cell lines. HOS; format: functional, cell-based
HT-1080 = assay: In vitro tumor cell growth inhibitory activity against Human fibrosarcoma HT1080 cell lines.; format: functional, cell-based
[11] = test system: KATO III stomach cancer cell line; assay: In vitro tumor cell growth inhibitory activity of Human stomach (adenocarcinoma) cell lines. KATO-III; format: functional, cell-based
KK-47 cell line = assay: In vitro tumor cell growth inhibitory activity against Human bladder carcinoma cell lines. kK-47; format: functional, cell-based
KB = assay: In vitro tumor cell growth inhibitory activity against human nasopharyngeal KB cell lines; format: functional, cell-based
L1210 = assay: In vitro tumor cell growth inhibitory activity against mouse leukemia L1210 cell lines.; format: functional, cell-based
MDA-MB-231 = assay: In vitro tumor cell growth inhibitory activity against Human breast (adenocarcinoma) cell lines. […]; format: functional, cell-based
MKN-28 = assay: In vitro tumor cell growth inhibitory activity against Human stomach (adenocarcinoma) cell lines. MKN-28; format: functional, cell-based
MCF7 = assay: In vitro tumor cell growth inhibitory activity against Human breast (adenocarcinoma) cell lines. MCF-7; format: functional, cell-based
MG-63 = assay: In vitro tumor cell growth inhibitory activity against Human osteosarcoma cell lines MG-63.; format: functional, cell-based
Lu-65 = assay: In vitro tumor cell growth inhibitory activity against Human lung large-cell carcinoma Lu-65 cell lines.; format: functional, cell-based
Mus musculus [12] = assay: In vivo inhibitory activity against Hucc-T1 cells tumor xenograft of bile duct in nude mice at a concentration of 0.25 mg/kg for 10 days; format: functional
Mus musculus [13] = assay: In vivo inhibitory activity against JRC-11 cells tumor xenograft of renal in nude mice at a concentration of 0.25 mg/kg for 10 days; format: functional
Mus musculus [14] = assay: In vivo tumor cell growth inhibitory activity against CO-3 tumor xenograft of colon in nude mice at a concentration of 0.25 mg/kg for 10 days; format: functional
Mus musculus [15] = assay: In vivo inhibitory activity against DLD-1 tumor xenograft of colon in nude mice at a concentration of 0.25 mg/kg for 10 days; format: functional
Mus musculus [16] = assay: In vivo inhibitory activity against H-31 cells tumor xenograft of breast in nude mice at a concentration of 0.25 mg/kg for 10 days; format: functional
Mus musculus [17] = assay: In vivo tumor cell growth inhibitory activity against KM12C tumor xenograft of […] in nude mice at a concentration of 0.25 mg/kg for 10 days; format: functional
Mus musculus [18] = assay: In vivo tumor cell growth inhibitory activity against NUGC-3 tumor xenograft of stomach in nude mice at a concentration of 0.25 mg/kg for 10 days; format: functional
Mus musculus [19] = assay: In vivo tumor cell growth inhibitory activity of CO-3 tumor xenograft of […] in nude mice at a concentration of 0.25 mg/kg for 10 days; format: functional
Mus musculus [20] = assay: In vivo tumor cell growth inhibitory activity of H-81 tumor xenograft of stomach in nude mice at a concentration of 0.25 mg/kg for 10 days; format: functional
NAKAJIMA = assay: In vitro tumor cell growth inhibitory activity against Human stomach (adenocarcinoma) cell lines. h) NAKAJIMA; format: functional, cell-based
NCI-H417 = assay: In vitro tumor cell growth inhibitory activity against Human lung small-cell carcinoma cell NCI-H-417; format: functional, cell-based
NUGC-4 = assay: In vitro tumor cell growth inhibitory activity of Human stomach (adenocarcinoma) cell lines. NUGC-4; format: functional, cell-based
PC10 = assay: In vitro tumor cell growth inhibitory activity against Human lung (adenocarcinoma) cell lines PC-10; format: functional, cell-based
PC-8 = assay: In vitro tumor cell growth inhibitory activity against Human lung (adenocarcinoma) cell lines. PC-8; format: functional, cell-based
PC-9 = assay: In vitro tumor cell growth inhibitory activity against Human lung (adenocarcinoma) cell lines PC-9; format: functional, cell-based
[21] = In vitro tumor cell growth inhibitory activity against Human lung squamous-cell carcinoma cell lines QG-95; format: functional
QG-56 = assay: In vitro tumor cell growth inhibitory activity against Human lung squamous-cell carcinoma cell linesQG-56; format: functional, cell-based
QG-90 = assay: In vitro tumor cell growth inhibitory activity against Human lung small-cell carcinoma cell lines. QG-90; format: functional, cell-based
QG-96 = assay: In vitro tumor cell growth inhibitory activity against Human lung small-cell carcinoma cellb) QG-96; format: functional, cell-based
SW48 = assay: In vitro tumor cell growth inhibitory activity against i Human colon (adenocarcinoma) cell lines. SW-48; format: functional, cell-based
SW480 = assay: In vitro tumor cell growth inhibitory activity against i Human colon (adenocarcinoma) cell lines. SW-480; format: functional, cell-based
ST-KM-1 = assay: In vitro tumor cell growth inhibitory activity against Human stomach (adenocarcinoma) cell linesST-KM; format: functional, cell-based
T-24 = assay: In vitro tumor cell growth inhibitory activity against Human bladder carcinoma cell lines. T24; format: functional, cell-based
fLS = assay: In vitro tumor cell growth inhibitory activity of Human stomach (adenocarcinoma) cell lines. fLS; format: functional, cell-based
YMB-1-E = assay: In vitro tumor cell growth inhibitory activity against Human breast (adenocarcinoma) cell lines YMB-1-E.; format: functional, cell-based
Mus musculus [22] = assay: In vivo inhibitory activity against PAN-12 tumor xenograft of pancreas in nude mice at a concentration of 0.25 mg/kg for 10 days; format: functional
PANC-1 = assay: In vitro tumor cell growth inhibitory activity against Human pancreas (adenocarcinoma) cell lines. PANC-1; format: functional, cell-based
NCI-H82 (Homo sapiens) = assay: In vitro tumor cell growth inhibitory activity against Human lung small-cell carcinoma cellc) NCI-H-82
[23] = test system: MIA PaCa-2 (Homo sapiens); assay: In vitro tumor cell growth inhibitory activity against Human pancreas (adenocarcinoma) cell Mia-PaCa-2
[24] = In vitro tumor cell growth inhibitory activity against Human stomach (adenocarcinoma) cell lines STSA-1
MKN-45 (Homo sapiens) = assay: In vitro tumor cell growth inhibitory activity against Human stomach (adenocarcinoma) cell lines. MKN-45

`O=c1[nH]cc(F)c(=O)[nH]1` [FLUOROURACIL] showed an Inhibition ratio (Mus musculus [1]) of 83%, an Inhibition ratio (Mus musculus [2]) of 25% and an Inhibition ratio (Mus musculus [3]) of 50%. It also gave an Inhibition ratio (Mus musculus [4]) of 68%, an Inhibition ratio (Mus musculus [5]) of 1% and an Inhibition ratio (Mus musculus [6]) of 50%. The Inhibition ratio (Mus musculus [7]) was 69%, the Inhibition ratio (Mus musculus [8]) was 59% and the Inhibition ratio (Mus musculus [9]) was 40%. It also gave an Inhibition ratio (Mus musculus [10]) of 49%.

In the case of `C#C[C@]1(O)[C@@H](CO)O[C@@H](n2ccc(N)nc2=O)[C@@H]1O`, the pIC50 (A-375) was 7.59, the pIC50 (A-431) was 7.48 and the pIC50 (COLO 320DM) was 7.70. The pIC50 (HCT-15) was 8.09, the pIC50 (HOS) was 6.00 and the pIC50 (HT-1080) was 7.14. The pIC50 [11] was 7.51, the pIC50 (KK-47 cell line) was 6.92 and the pIC50 (KB) was 7.55. The pIC50 (L1210) was 7.80, the pIC50 (MDA-MB-231) was 7.62 and the pIC50 (MKN-28) was 6.68. The pIC50 (MCF7) was 7.16, the pIC50 (MG-63) was 6.82 and the pIC50 (Lu-65) was 7.49. For the same compound, the Inhibition ratio (Mus musculus [12]) was 55%, the Inhibition ratio (Mus musculus [13]) was 73% and the Inhibition ratio (Mus musculus [14]) was 88%. For the same compound, the Inhibition ratio (Mus musculus [15]) was 78%, the Inhibition ratio (Mus musculus [16]) was 76% and the Inhibition ratio (Mus musculus [17]) was 83%. For the same compound, the Inhibition ratio (Mus musculus [18]) was 84%, the Inhibition ratio (Mus musculus [19]) was 80% and the Inhibition ratio (Mus musculus [20]) was 92%. It also gave a pIC50 (NAKAJIMA) of 6.77, a pIC50 (NCI-H417) of 7.37 and a pIC50 (NUGC-4) of 7.62. For the same compound, the pIC50 (PC10) was 6.80, the pIC50 (PC-8) was 7.05 and the pIC50 (PC-9) was 6.96. It also gave a pIC50 [21] of 6.68, a pIC50 (QG-56) of 7.35 and a pIC50 (QG-90) of 6.89. For the same compound, the pIC50 (QG-96) was 6.41, the pIC50 (SW48) was under 5.72 and the pIC50 (SW480) was 6.59. The pIC50 (ST-KM-1) was 7.33, the pIC50 (T-24) was 7.55 and the pIC50 (fLS) was 7.68. For the same compound, the pIC50 (YMB-1-E) was 6.80, the Inhibition ratio (Mus musculus [22]) was 75% and the pIC50 (PANC-1) was under 5.72. It also gave a pIC50 (NCI-H82 (Homo sapiens)) of 6.92, a pIC50 [23] of 7.82 and a pIC50 [24] of 6.82. For the same compound, the pIC50 (MKN-45 (Homo sapiens)) was 8.06.
